Assay results as given in patent US8163756B2 (priority 2004, dated 2012).

These compounds were tested against B-Raf(V599E) kinase (Homo sapiens, UniProt P15056, V600E) (assay: B-Raf(V599E) kinase assay B1 (construct 1, MEK1 substrate, coupled spectrophotometric)). Settings: not given.
Assay type: biochemical
Protocol: The test compounds were incubated with the reaction mixtureat 30° C. for 2 h. […] The reaction rate was calculated using the […] time frame. […] IC50 values were calculated from a series of percent inhibition values determined at a range of inhibitor concentrations using software routines as implemented in the GraphPad Prism software package.

B-Raf(V599E) kinase, sequence (P15056 with tags, fused parts or gaps V600E): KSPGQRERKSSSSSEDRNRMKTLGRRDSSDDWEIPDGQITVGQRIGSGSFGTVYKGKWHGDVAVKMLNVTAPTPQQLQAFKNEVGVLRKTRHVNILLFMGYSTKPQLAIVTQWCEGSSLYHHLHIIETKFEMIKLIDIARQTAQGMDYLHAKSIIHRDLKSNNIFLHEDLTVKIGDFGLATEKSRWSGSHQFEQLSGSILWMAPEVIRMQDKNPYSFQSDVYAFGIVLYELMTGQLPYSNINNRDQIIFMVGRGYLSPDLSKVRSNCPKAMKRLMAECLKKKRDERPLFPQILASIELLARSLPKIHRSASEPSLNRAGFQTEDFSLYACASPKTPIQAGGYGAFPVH

How did the IC50 turn out when `CC(C)(C)c1ncc(NC(=O)Nc2cccc(Oc3ccccc3)c2)c(-c2ccccc2)n1` [Example 280, 1-(2-t-butyl-4-phenylpyrimidin-5-yl)-3-(3-phenoxyphenyl)urea] was run?
The IC50 was 275 nM.

With `CC(C)(C)c1cc(NC(=O)Nc2cccc(F)c2F)n(-c2cc(CO)c3ccccc3c2)n1` [Example 294] as the compound, how does the IC50 read?
The IC50 was 3.3 nM.

Which IC50 does the source give for `CC(C)(C)c1cc(NC(=O)Nc2ccc(Cl)cc2)n(-c2cc(CC(=O)O)c3ccccc3c2)n1` [Example 300, (3-{3-t-butyl-5-[3-(4-chlorophenyl)ureido]pyrazol-1-yl}naphthalen-1-yl)acetic acid] here?
The IC50 was 9.2 nM.

Which IC50 does the source give for `CC(C)(C)c1cc(NC(=O)Nc2ccc3c(c2)OCO3)n(-c2cccc(CC(N)=O)c2)n1` [Example 395, 1-{1-[3-(2-amino-2-oxoethyl)phenyl]-3-t-butyl-1H-pyrazol-5-yl}-3-(benzo[d][1,3]dioxol-5-yl)urea] here?
Its IC50 is 50 nM.

`CC(C)(C)c1cc(NC(=O)Nc2ccccc2F)n(-c2cccc(CC(=O)O)c2)n1` [Example 371, 2-(3-(3-t-butyl-5-(3-(2-fluorophenyl)-ureido)-1H-pyrazol-1-yl)phenyl)acetic acid] was tested. Which IC50 did it give?
The IC50 was 10 nM.

For `CC(C)(C)c1cc(NC(=O)Nc2cc(F)c(F)cc2F)n(-c2ccc3c(c2)CCC(=O)N3)n1` [Example 323, 1-(3-t-butyl-1-(2-oxo-1,2,3,4-tetrahydro-quinolin-6-yl)-1H-pyrazol-5-yl)-3-(2,4,5-trifluorophenyl)urea], which IC50 is on record?
Its IC50 is 3.4 nM.

For `COc1cccc(-n2nc(C(C)(C)C)cc2NC(=O)Nc2ccc(F)cc2)c1` [Example 230, 1-(3-t-butyl-1-(3-methoxyphenyl)-1H-pyrazol-5-yl)-3-(4-fluorophenyl)urea], which IC50 is on record?
The IC50 was 52 nM.

`CC(C)(C)c1cc(NC(=O)Nc2ccccc2F)n(-c2cc(CO)c3ccccc3c2)n1` [Example 291, 1-(3-t-butyl-1-(4-(hydroxymethyl)naphthalen-2-yl)-1H-pyrazol-5-yl)-3-(2-fluorophenyl)urea] was tested. Which IC50 did it give?
The IC50 was 5.3 nM.

Which IC50 does the source give for `CC(C)(C)c1cc(NC(=O)NC2CCCCC2)n(-c2ccc3c(c2)C(=O)NCC3)n1` [Example 310, 1-(3-t-butyl-1-(1-oxo-1,2,3,4-tetrahydroiso-quinolin-7-yl)-1H-pyrazol-5-yl)-3-cyclohexylurea] here?
Its IC50 is 98 nM.

`CC(C)(C)c1cc(NC(=O)Nc2ccc3c(c2)OCO3)n(-c2cccc(CO)c2)n1` [Example 221, 1-(benzo[d][1,3]dioxol-5-yl)-3-(3-t-butyl-1-(3-(hydroxymethyl)phenyl)-1H-pyrazol-5-yl)urea] was tested. Which IC50 did it give?
Its IC50 is 88 nM.

`CC(C)NC(=O)Cc1cccc(-n2nc(C(C)(C)C)cc2NC(=O)Nc2cccc(Cl)c2Cl)c1` [Example 441, 1-(3-t-butyl-1-(3-(2-(isopropylamino)-2-oxoethyl)phenyl)-1H-pyrazol-5-yl)-3-(2,3-dichlorophenyl)urea] was tested. Which IC50 did it give?
The IC50 was 6.4 nM.

With `CC(C)(C)c1cc(NC(=O)Nc2ccc(Cl)cc2)n(-c2cccc(CN3C(=O)C(=O)N(c4ccccc4)C3=O)c2)n1` [Example 269, 1-(3-t-butyl-1-(3-[(2,4,5-trioxo-3-phenylimidazolidin-1-yl)methyl]phenyl}-1H-pyrazol-5-yl)-3-(4-chlorophenyl)urea] as the compound, how does the IC50 read?
Its IC50 is 279 nM.

How did the IC50 turn out when `CC(C)(C)c1cc(NC(=O)Nc2ccc(F)cc2)n(-c2ccc3c(c2)CCC(=O)N3)n1` [Example 317] was run?
The IC50 was 36 nM.

For `CC(C)(C)c1cc(NC(=O)Nc2ccc(F)cc2)n(-c2cc(CO)c3ccccc3c2)n1` [Example 293], which IC50 is on record?
Its IC50 is 7 nM.

`COc1cccc(-n2nc(C(C)(C)C)cc2NC(=O)Nc2ccc3c(c2)OCO3)c1` [Example 234, 1-(benzo[d][1,3]dioxo-5-yl)-3-(3-t-butyl-1-(3-methoxyphenyl)-1H-pyrazol-5-yl)urea] was tested. Which IC50 did it give?
Its IC50 is 32 nM.

With `CC(C)(C)c1cc(NC(=O)Nc2ccc(F)c(F)c2F)n(-c2ccc3c(c2)CCC(=O)N3)n1` [Example 322, 1-(3-t-butyl-1-(2-oxo-1,2,3,4-tetrahydro-quinolin-6-yl)-1H-pyrazol-5-yl)-3-(2,3,4-trifluorophenyl)urea] as the compound, how does the IC50 read?
Its IC50 is 4.1 nM.

For `CC(C)(C)c1cc(NC(=O)Nc2cc(F)c(F)c(F)c2)n(-c2ccc3c(c2)CCC(=O)N3)n1` [Example 324, 1-(3-t-butyl-1-(2-oxo-1,2,3,4-tetrahydro-quinolin-6-yl)-1H-pyrazol-5-yl)-3-(3,4,5-trifluorophenyl)urea], which IC50 is on record?
The IC50 was 17 nM.

`CC(=O)OCc1cccc(-n2nc(C(C)(C)C)cc2NC(=O)Nc2cccc(Cl)c2Cl)c1` [Example 245, 3-(3-t-butyl-5-(3-(2,3-dichlorophenyl)ureido)-1H-pyrazol-1-yl)benzyl acetate] was tested. Which IC50 did it give?
The IC50 was 5.3 nM.

For `CC(C)(C)c1cc(NC(=O)Nc2ccc(F)cc2F)n(-c2ccc3ncccc3c2)n1` [Example 284, 1-(3-t-butyl-1-(quinolin-6-yl)-1H-pyrazol-5-yl)-3-(2,4-difluorophenyl)urea], which IC50 is on record?
The IC50 was 8.5 nM.

With `CC(C)(C)c1cc(NC(=O)Nc2cccc(Br)c2)n(-c2cccc(CO)c2)n1` [Example 223, 1-{3-t-butyl-1-[3-(hydroxymethyl)phenyl]-1H-pyrazol-5-yl}-3-(3-bromophenyl)urea] as the compound, how does the IC50 read?
The IC50 was 54 nM.

With `CC(C)(C)c1cc(NC(=O)Nc2ccc(F)cc2F)n(-c2cccc(CC(=O)O)c2)n1` [Example 369, 2-(3-(3-t-butyl-5-(3-(2,4-difluorophenyl)-ureido)-1H-pyrazol-1-yl)phenyl)acetic acid] as the compound, how does the IC50 read?
Its IC50 is 15 nM.

`COc1ccc(-n2nc(C(C)(C)C)cc2NC(=O)Nc2cccc(C(F)(F)F)c2)cc1` [Example 238, 1-[3-t-butyl-1-(4-methoxyphenyl)-1H-pyrazol-5-yl]-3-(3-trifluoromethylphenyl)urea] was tested. Which IC50 did it give?
Its IC50 is 65 nM.

Which IC50 does the source give for `CC(C)(C)c1cc(NC(=O)NC2CCCC2)n(-c2cc(CC(N)=O)c3ccccc3c2)n1` [Example 93, 1-(1-(4-(2-amino-2-oxoethyl)naphthalen-2-yl)-3-t-butyl-1H-pyrazol-5-yl)-3-cyclopentylurea] here?
Its IC50 is 60 nM.

For `CCOC(=O)Cc1cccc(-n2nc(C(C)(C)C)cc2NC(=O)Nc2ccc3c(c2)OCO3)c1` [Example 247, ethyl 2-(3-{5-[3-(benzo[d][1,3]dioxol-5-yl)ureido]-3-t-butyl-1H-pyrazol-1-yl}phenyl)-acetate], which IC50 is on record?
Its IC50 is 70 nM.

How did the IC50 turn out when `CC(C)(C)c1cc(NC(=O)Nc2cccc(Cl)c2Cl)n(-c2cccc(C(=O)O)c2)n1` [Example 226, 3-{3-t-butyl-5-[3-(2,3-dichlorophenyl)ureido]-1H-pyrazol-1-yl}benzoic acid] was run?
The IC50 was 20 nM.

`CC(C)(C)c1cc(NC(=O)Nc2ccc(F)c(F)c2)n(-c2cccc(CC(N)=O)c2)n1` [Example 436, 1-(1-(3-(2-amino-2-oxoethyl)phenyl)-3-t-butyl-1H-pyrazol-5-yl)-3-(3,4-difluorophenyl)urea] was tested. Which IC50 did it give?
The IC50 was 18 nM.

`Cc1cc(NC(=O)Nc2cc(C(C)(C)C)nn2-c2ccc3c(c2)C(=O)NCC3)no1` [Example 314, 1-(3-t-butyl-1-(1-oxo-1,2,3,4-tetrahydroiso-quinolin-7-yl)-1H-pyrazol-5-yl)-3-(5-methylisoxazol-3-yl)urea] was tested. Which IC50 did it give?
The IC50 was 266 nM.

With `CCOC(=O)Cc1cc(-n2nc(C(C)(C)C)cc2NC(=O)Nc2ccc(Cl)cc2)cc2ccccc12` [Example 298, (3-{3-t-butyl-5-[3-(4-chlorophenyl)ureido]pyrazol-1-yl}naphthalen-1-yl)acetic acid ethyl ester] as the compound, how does the IC50 read?
The IC50 was 83 nM.

With `CC(C)(C)c1cc(NC(=O)Nc2ccccc2)n(-c2cc(CC(N)=O)c3ccccc3c2)n1` [Example 88, 1-(1-(4-(2-amino-2-oxoethyl)naphthalen-2-yl)-3-t-butyl-1H-pyrazol-5-yl)-3-phenylurea] as the compound, how does the IC50 read?
The IC50 was 12 nM.

For `CC(C)(C)c1cc(NC(=O)Nc2cccc(Oc3ccccc3)c2)n(-c2cccc(CC(N)=O)c2)n1` [Example 433, 1-(1-(3-(2-amino-2-oxoethyl)phenyl)-3-t-butyl-1H-pyrazol-5-yl)-3-(3-phenoxyphenyl)urea], which IC50 is on record?
The IC50 was 5.1 nM.

With `CC(C)(C)c1cc(NC(=O)Nc2ccccc2F)n(-c2ccc3c(c2)C(=O)NCC3)n1` [Example 312, 1-(3-t-butyl-1-(1-oxo-1,2,3,4-tetrahydroiso-quinolin-7-yl)-1H-pyrazol-5-yl)-3-(2-fluorophenyl)urea] as the compound, how does the IC50 read?
The IC50 was 35 nM.

How did the IC50 turn out when `CC(C)(C)c1cc(NC(=O)NC2CCCCC2)n(-c2cccc(-c3cccnc3)c2)n1` [Example 274, 1-[5-t-butyl-2-(3-pyridin-3-yl-phenyl)-2H-pyrazol-3-yl]-3-cyclohexyl-urea] was run?
Its IC50 is 134 nM.

Which IC50 does the source give for `CC(C)(C)c1cc(NC(=O)NC2CCCCC2)n(-c2cc(CO)c3ccccc3c2)n1` [Example 292, 1-(3-t-butyl-1-(4-(hydroxymethyl)naphthalen-2-yl)-1H-pyrazol-5-yl)-3-cyclohexylurea] here?
The IC50 was 22 nM.

Which IC50 does the source give for `CCOC(=O)c1ccc(-n2nc(C(C)(C)C)cc2NC(=O)Nc2cccc(Cl)c2Cl)cc1` [Example 243, ethyl 4-{3-t-butyl-5-[3-(2,3-dichlorophenyl)ureido]-1H-pyrazol-1-yl}benzoate] here?
The IC50 was 41 nM.

For `CCOC(=O)c1cc(-n2nc(C(C)(C)C)cc2NC(=O)NC2CCCCC2)cc2ccccc12` [Example 288, ethyl 3-(3-t-butyl-5-(3-cyclohexylureido)-1H-pyrazol-1-yl)-1-naphthoate], which IC50 is on record?
Its IC50 is 56 nM.

For `CC(C)(C)c1cc(NC(=O)Nc2ccc(Cl)cc2)n(-c2cc(CCO)c3ccccc3c2)n1` [Example 302, 1-{5-t-butyl-2-[4-(2-hydroxyethyl)naphthalen-2-yl]-2H-pyrazol-3-yl}-3-(4-chlorophenyl)urea], which IC50 is on record?
The IC50 was 13 nM.

Same assay, conditions: Method B1; read-out: B-Raf Data

For `CC(C)(C)c1cc(NC(=O)Nc2cc(F)c(F)cc2F)n(-c2cccc(CC(N)=O)c2)n1` [Example 434, 1-(1-(3-(2-amino-2-oxoethyl)phenyl)-3-t-butyl-1H-pyrazol-5-yl)-3-(2,4,5-trifluorophenyl)urea], which IC50 is on record?
Its IC50 is 6.7 nM.

How did the IC50 turn out when `NC(=O)Cc1cccc(-n2nc(-c3cccs3)cc2NC(=O)Nc2cccc(Cl)c2Cl)c1` [Example 445, 1-(1-(3-(2-amino-2-oxoethyl)phenyl)-3-(thiophen-2-yl)-1H-pyrazol-5-yl)-3-(2,3-dichlorophenyl)urea] was run?
Its IC50 is 838 nM.

With `CC(C)(C)c1cc(NC(=O)Nc2cccc(-c3cnccn3)c2)n(-c2cccc(CC(N)=O)c2)n1` [Example 437, 1-(1-(3-(2-amino-2-oxoethyl)phenyl)-3-t-butyl-1H-pyrazol-5-yl)-3-(3-(pyrazin-2-yl)phenyl)urea] as the compound, how does the IC50 read?
Its IC50 is 279 nM.
